According to US20150141381A1, “TETRACYCLINE COMPOUNDS HAVING TARGET THERAPEUTIC ACTIVITIES” (Paratek Pharmaceuticals, Inc., priority 2001, published 2015):
Like-named read-outs stand apart in the source and are kept apart here.

What was measured:
S. aureus RN450 = assay: In Vitro Anti-Bacterial Activity Assay (MIC), gram positive; format: cell-based; settings: for MIC: Staphylococcus aureus, RN450, 18 h
E. coli mL308 225 = assay: In Vitro Anti-Bacterial Activity Assay (MIC), gram negative; format: cell-based; settings: for MIC: Escherichia coli, ML308225, 18 h
[1] = gram positive bacteria, read-out: Antibiotic Activity Gram + (MIC)
[2] = gram negative bacteria, read-out: Antibiotic Activity Gram − (MIC)
[3] = MIC class, Table 3, read-out: Antibiotic Activity Gram +
[4] = MIC class, Table 3, read-out: Antibiotic Activity Gram −
[5] = read-out: Antibiotic Activity Gram − (MIC)
[6] = MIC class, Table 3 (Continued), read-out: Gram+ activity
[7] = MIC class, Table 3 (Continued), read-out: Gram− activity

| Structure (SMILES) | MIC (S. aureus RN450; [1]) [µg/mL] | MIC (E. coli mL308 225; [2]) [µg/mL] | MIC (S. aureus RN450; [3]) [µg/mL] | MIC (E. coli mL308 225; [4]) [µg/mL] | further results |
| --- | --- | --- | --- | --- | --- |
| CN(C)c1cc2c(c3c1C[C@H]1C[C@H]4[C@H](N(C)C)C(O)=C(C(N)=O)C(=O)[C@@]4(O)C(O)=C1C3=O)OC(=O)N(CC(C)(C)C)C2 | > 4 | > 4 |  |  |  |
| CN(C)c1cc(NC(=O)Nc2ccc(F)c([N+](=O)[O-])c2)c(O)c2c1C[C@H]1C[C@H]3[C@H](N(C)C)C(O)=C(C(N)=O)C(=O)[C@@]3(O)C(O)=C1C2=O [DB] |  |  | < 4 | > 4 |  |
| CN(C)[C@@H]1C(O)=C(C(N)=O)C(=O)[C@@]2(O)C(O)=C3C(=O)c4c(O)ccc(Cl)c4C=C3C[C@@H]12 | < 4 | < 4 |  |  |  |
| CN(C)[C@@H]1C(O)=C(C(N)=O)C(=O)[C@@]2(O)C(O)=C3C(=O)c4c(ccc(CNCC(C)(C)C)c4O)C[C@H]3C[C@@H]12 [MZ] |  |  | < 4 | < 4 |  |
| CN(C)c1cc(CNC(N)=O)c(O)c2c1C[C@H]1C[C@H]3[C@H](N(C)C)C(O)=C(C(N)=O)C(=O)[C@@]3(O)C(O)=C1C2=O | > 4 | > 4 |  |  |  |
| CN(C)c1cc(NCc2cccnc2)c(O)c2c1C[C@H]1C[C@H]3C(N(C)C)C(O)=C(C(N)=O)C(=O)[C@@]3(O)C(O)=C1C2=O (stereo partly drawn) [FA] |  |  | > 4 | > 4 |  |
| COc1ccc(-c2cc(CNC(C)CF)c(O)c3c2C[C@H]2C[C@H]4[C@H](N(C)C)C(O)=C(C(N)=O)C(=O)[C@@]4(O)C(O)=C2C3=O)cc1 (stereo partly drawn) | < 4 |  |  |  | MIC (E. coli mL308 225; [5]): > 4 µg/mL |
| CCCCc1ccc(-c2cc(N(C)C)c3c(c2O)C(=O)C2=C(O)[C@]4(O)C(=O)C(C(N)=O)=C(O)[C@@H](N(C)C)[C@@H]4C[C@@H]2C3)cc1 [EI] |  |  | > 4 | > 4 |  |
| CN(C)[C@@H]1C(O)=C(C(N)=O)C(=O)[C@@]2(O)C(O)=C3C(=O)c4c(O)c(-c5ccc6c(c5)OCO6)cc(-c5ccc6c(c5)OCO6)c4C[C@H]3C[C@@H]12 | < 4 | > 4 |  |  |  |
| C[C@H]1c2cccc(O)c2C(=O)C2=C(O)[C@]3(O)C(=O)C(C(N)=O)=C(O)[C@@H](N(C)C)[C@@H]3[C@@H](O)[C@@H]21 [drawing 3668] |  |  |  |  | Antibiotic Activity Gram + (MIC) (S. aureus RN450; gram positive bacteria): ** (compounds with MIC less than or equal to 4 μg/ml are indicated with **); Antibiotic Activity Gram − (MIC) (E. coli mL308 225; gram negative bacteria): * (compounds with an MIC of greater than 4 μg/ml are indicated with *) |
| CN(C)c1cc(CNCc2ccccc2)c(O)c2c1C[C@H]1C[C@H]3[C@H](N(C)C)C(O)=C(C(N)=O)C(=O)[C@@]3(O)C(O)=C1C2=O [MW] |  |  | < 4 | < 4 |  |
| COc1ccc(-c2ccc3c(c2O)C(=O)C2=C(O)[C@]4(O)C(=O)C(C(N)=O)=C(O)[C@@H](N(C)C)[C@@H]4[C@@H](O)[C@@H]2[C@H]3C)cc1CC1CCCC1 | > 4 | > 4 |  |  |  |
| COc1ccc(CNCCF)cc1-c1ccc(O)c2c1C[C@H]1C[C@H]3[C@H](N(C)C)C(O)=C(C(N)=O)C(=O)[C@@]3(O)C(O)=C1C2=O | < 4 |  |  |  | MIC (E. coli mL308 225; [5]): > 4 µg/mL |
| CN(C)c1cc(CNCc2ccccc2F)c(O)c2c1C[C@H]1C[C@H]3[C@H](N(C)C)C(O)=C(C(N)=O)C(=O)[C@@]3(O)C(O)=C1C2=O | < 4 | > 4 |  |  |  |
| CCCC(=O)C[C@@H]1[C@H]2[C@H](N(C)C)C(O)=C(C(N)=O)C(=O)[C@@]2(O)C(O)=C2C(=O)c3c(O)cccc3C(C)[C@H]21 (stereo partly drawn) |  |  |  |  | MIC (S. aureus RN450; [6]): < 4 µg/mL; MIC (E. coli mL308 225; [7]): < 4 µg/mL |
| CC(CF)NCc1ccc(O)c2c1C[C@H]1C[C@H]3[C@H](N(C)C)C(O)=C(C(N)=O)C(=O)[C@@]3(O)C(O)=C1C2=O (stereo partly drawn) | < 4 |  |  |  | MIC (E. coli mL308 225; [5]): > 4 µg/mL |
| CCc1cc(CNC(=O)c2cccnc2)c(O)c2c1C[C@H]1C[C@H]3[C@H](N(C)C)C(O)=C(C(N)=O)C(=O)[C@@]3(O)C(O)=C1C2=O [CS] |  |  | > 4 | > 4 |  |
| CC(C)COC(=O)NCc1ccc(O)c2c1C[C@H]1C[C@H]3[C@H](N(C)C)C(O)=C(C(N)=O)C(=O)[C@@]3(O)C(O)=C1C2=O [FT] |  |  | < 4 | > 4 |  |
| CC(C)ONC(C)c1ccc(O)c2c1C[C@H]1C[C@H]3[C@H](N(C)C)C(O)=C(C(N)=O)C(=O)[C@@]3(O)C(O)=C1C2=O (stereo partly drawn) | < 4 | < 4 |  |  |  |
| CN(C)c1cc(CN2CCC(F)CC2)c(O)c2c1C[C@H]1C[C@H]3[C@H](N(C)C)C(O)=C(C(N)=O)C(=O)[C@@]3(O)C(O)=C1C2=O | < 4 | < 4 |  |  |  |

| Structure (SMILES) | MIC (S. aureus RN450; [1]) [µg/mL] | MIC (E. coli mL308 225; [2]) [µg/mL] | MIC (S. aureus RN450; [3]) [µg/mL] | MIC (E. coli mL308 225; [4]) [µg/mL] | further results |
| --- | --- | --- | --- | --- | --- |
| CN(C)[C@@H]1C(O)=C(C(N)=O)C(=O)[C@@]2(O)C(O)=C3C(=O)c4c(O)cccc4/C(=C\c4ccc(C(F)(F)F)cc4)[C@H]3[C@H](O)[C@@H]12 [AC] |  |  | < 4 | > 4 |  |
| CN(C)[C@@H]1C(O)=C(C(N)=O)C(=O)[C@@]2(O)C(O)=C3C(=O)c4c(O)cccc4C(CSCc4ccccc4)[C@H]3[C@H](O)[C@@H]12 (stereo partly drawn) |  |  |  |  | MIC (S. aureus RN450; [6]): < 4 µg/mL; MIC (E. coli mL308 225; [7]): < 4 µg/mL |
| Cc1ccc(-c2ccc(O)c3c2C[C@H]2C[C@H]4[C@H](N(C)C)C(O)=C(C(N)=O)C(=O)[C@@]4(O)C(O)=C2C3=O)s1 |  |  |  |  | MIC (S. aureus RN450; [6]): < 4 µg/mL; MIC (E. coli mL308 225; [7]): < 4 µg/mL |
| CN(C)Cc1ccc(-c2ccc(O)c3c2C[C@H]2C[C@H]4[C@@H](N(C)C)C(O)=C(C(N)=O)C(=O)[C@@]4(O)C(O)=C2C3=O)c2ccccc12 [K] |  |  | < 4 | < 4 |  |
| CN(C)[C@@H]1C(O)=C(C(N)=O)C(=O)[C@@]2(O)C(O)=C3C(=O)c4c(O)c(I)cc(CN)c4C[C@H]3C[C@@H]12 [FV] |  |  | > 4 | > 4 |  |
| COc1ccc(-c2ccc(O)c3c2C[C@H]2C[C@H]4[C@H](N(C)C)C(O)=C(C(N)=O)C(=O)[C@@]4(O)C(O)=C2C3=O)cc1CN1CCN(CCO)CC1 [KA] |  |  | < 4 | > 4 |  |
| CCN(CC)Cc1cc(-c2ccoc2)c2c(c1O)C(=O)C1=C(O)[C@]3(O)C(=O)C(C(N)=O)=C(O)[C@@H](N(C)C)[C@@H]3C[C@@H]1C2 | < 4 | > 4 |  |  |  |
| CCOC(=O)c1csc(NCc2cc(N(C)C)c3c(c2O)C(=O)C2=C(O)[C@]4(O)C(=O)C(C(N)=O)=C(O)C(N(C)C)[C@@H]4C[C@@H]2C3)n1 (stereo partly drawn) [MT] |  |  | > 4 | > 4 |  |
| CC(=O)N(Cc1cc(N(C)C)c2c(c1O)C(=O)C1=C(O)[C@]3(O)C(=O)C(C(N)=O)=C(O)[C@@H](N(C)C)[C@@H]3C[C@@H]1C2)CC(C)(C)C | > 4 | > 4 |  |  |  |
| Cc1cnc(N)n1Cc1cc(N(C)C)c2c(c1O)C(=O)C1=C(O)[C@]3(O)C(=O)C(C(N)=O)=C(O)[C@@H](N(C)C)[C@@H]3C[C@@H]1C2 [drawing 3711] | < 4 | > 4 |  |  |  |
| CC(=O)c1cccc(-c2ccc(O)c3c2C[C@H]2C[C@H]4[C@H](N(C)C)C(O)=C(C(N)=O)C(=O)[C@@]4(O)C(O)=C2C3=O)c1 [AO] |  |  | < 4 | > 4 |  |
| CN(C)c1cc(CNCC2CC2)c(O)c2c1C[C@H]1C[C@H]3[C@H](N(C)C)C(O)=C(C(N)=O)C(=O)[C@@]3(O)C(O)=C1C2=O | < 4 | > 4 |  |  |  |
| CN(C)[C@@H]1C(O)=C(C(N)=O)C(=O)[C@@]2(O)C(O)=C3C(=O)c4c(O)ccc(-c5ccccc5)c4C[C@H]3C[C@@H]12 | < 4 | < 4 |  |  |  |
| CCOC(=O)/C(I)=C/C(=C/c1ccc(O)c2c1C[C@H]1C[C@H]3[C@H](N(C)C)C(O)=C(C(N)=O)C(=O)[C@@]3(O)C(O)=C1C2=O)C(=O)OCC [AX] |  |  | > 4 | > 4 |  |
| CN(C)[C@@H]1C(O)=C(C(N)=O)C(=O)[C@@]2(O)C(O)=C3C(=O)c4c(O)ccc(NC(=O)c5ccno5)c4C[C@H]3C[C@@H]12 [IM] |  |  | < 4 | > 4 |  |
| CCOP(=O)(OCC)C(Nc1ccc2c(c1O)C(=O)C1=C(O)[C@]3(O)C(=O)C(C(N)=O)=C(O)[C@@H](N(C)C)[C@@H]3[C@@H](O)[C@@H]1[C@H]2C)c1ccccc1 (stereo partly drawn) |  |  |  |  | MIC (S. aureus RN450; read-out: Gram+ activity): < 4 µg/mL; MIC (E. coli mL308 225; read-out: Gram− activity): > 4 µg/mL |
| CN(C)c1ccc(O)c2c1C[C@H]1C[C@H]3[C@H](N(C)C)C(O)=C(C#N)C(=O)[C@@]3(O)C(O)=C1C2=O | > 4 | > 4 |  |  |  |
| CCC(=O)Nc1ccc2c(c1O)C(=O)C1=C(O)[C@]3(O)C(=O)C(C(N)=O)=C(O)[C@@H](N(C)C)[C@@H]3C[C@@H]1C2 | < 4 | < 4 |  |  |  |
| C[C@H]1c2c(-c3ccccc3)cc(-c3ccccc3)c(O)c2C(=O)C2=C(O)[C@]3(O)C(=O)C(C(N)=O)=C(O)[C@@H](N(C)C)[C@@H]3[C@@H](O)[C@@H]21 | < 4 | < 4 |  |  |  |
